In PubChem BioAssay AID330 (DTP/NCI, 2004):
“And” between values parts separate entries of the source, which are not always exact repeats. Equal values may be shown once. Toxic doses and inconclusive results are not listed. How the source made its calls: active means survival T/C of 150% or more; inactive means T/C below 125% in these data.

Test system: P388 leukemia ip, CD2F1 mice, survival T/C
Experiment: NCI In Vivo Anticancer Drug Screen. Data for tumor model P388 Leukemia (intraperitoneal) in CD2F1 (CDF1) mice
Conditions: endpoint: median survival time, higher = longer survival
Procedure, shortened: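 Mice carrying the transplanted tumor received test compound or vehicle. Survival was recorded in each group, and the value is the treated-group measurement divided by that of the vehicle-treated control group.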

[1] = dose: 60.0 mg/kg/injection, schedule: Q01DX005 (ip), vehicle: Klucel (hydroxypropylcellulose) (HPC)
[2] = dose: 120.0 mg/kg/injection, schedule: Q01DX005 (ip), vehicle: Klucel (hydroxypropylcellulose) (HPC)
[3] = dose: 240.0 mg/kg/injection, schedule: Q01DX005 (ip), vehicle: Klucel (hydroxypropylcellulose) (HPC)
[4] = dose: 50.0 mg/kg/injection, schedule: Q01DX005 (ip), vehicle: Klucel (hydroxypropylcellulose) (HPC)
[5] = dose: 100.0 mg/kg/injection, schedule: Q01DX005 (ip), vehicle: Klucel (hydroxypropylcellulose) (HPC)
[6] = dose: 200.0 mg/kg/injection, schedule: Q01DX005 (ip), vehicle: Klucel (hydroxypropylcellulose) (HPC)
[7] = dose: 60.0 mg/kg/injection, schedule: Q01DX005 (ip), vehicle: saline with Tween-80
[8] = dose: 120.0 mg/kg/injection, schedule: Q01DX005 (ip), vehicle: saline with Tween-80
[9] = dose: 240.0 mg/kg/injection, schedule: Q01DX005 (ip), vehicle: saline with Tween-80
[10] = dose: 100.0 mg/kg/injection, schedule: Q01DX009 (ip), vehicle: saline with Tween-80
[11] = dose: 200.0 mg/kg/injection, schedule: Q01DX009 (ip), vehicle: saline with Tween-80

Measured: T/C

CCc1nc(-c2ccccc2)nc2c1nc(-c1cccc(C)c1)n2Nc1ccccc1
inactive: [1] 97 % of control | [2] 94 % of control | [3] 88 % of control

N#CC(C#N)=CN(CCO)CCO
inactive: dose: 50.0 mg/kg/injection, schedule: Q01DX005 (ip), vehicle: saline 99 % of control | dose: 100.0 mg/kg/injection, schedule: Q01DX005 (ip), vehicle: saline 99 % of control | dose: 200.0 mg/kg/injection, schedule: Q01DX005 (ip), vehicle: saline 97 % of control

COc1cc([C@@H]2OC[C@@H]3C(c4cc(OC)c5c(c4)OCO5)OC[C@@H]32)cc(OC)c1OC (stereo partly specified)
inactive: dose: 5.0 mg/kg/injection, schedule: Q01DX009 (ip), vehicle: saline + Tween-80 + alcohol 102 % of control | dose: 10.0 mg/kg/injection, schedule: Q01DX009 (ip), vehicle: saline + Tween-80 + alcohol 101 % of control | dose: 20.0 mg/kg/injection, schedule: Q01DX009 (ip), vehicle: saline + Tween-80 + alcohol 105 % of control | dose: 40.0 mg/kg/injection, schedule: Q01DX009 (ip), vehicle: saline + Tween-80 + alcohol 105 % of control

CCCCN(C)/N=N/c1[nH]ncc1C(=O)OCC
inactive: dose: 100.0 mg/kg/injection, schedule: Q01DX009 (ip), vehicle: other 120 % of control | dose: 200.0 mg/kg/injection, schedule: Q01DX009 (ip), vehicle: other 116 % of control

Cc1ccc(NC(=S)SCc2ccc(Cl)c(Cl)c2)cc1Cl
inactive: dose: 50.0 mg/kg/injection, schedule: Q01DX009 (ip), vehicle: suspension in saline 112 % of control | dose: 100.0 mg/kg/injection, schedule: Q01DX009 (ip), vehicle: suspension in saline 115 % of control | dose: 200.0 mg/kg/injection, schedule: Q01DX009 (ip), vehicle: suspension in saline 116 % of control

CC(C)N(C(=S)Sc1c2ccccc2c(Br)c2ccccc12)C(C)C
inactive: dose: 12.5 mg/kg/injection, schedule: Q01DX005 (ip), vehicle: Klucel (hydroxypropylcellulose) (HPC) 108 % of control | dose: 25.0 mg/kg/injection, schedule: Q01DX005 (ip), vehicle: Klucel (hydroxypropylcellulose) (HPC) 102 % of control | [4] 99 % of control and 89 % of control

CCOc1c(N=Nc2ccccc2OC)c(-c2ccccc2)nn1C(N)=S
inactive: dose: 50.0 mg/kg/injection, schedule: Q01DX005 (ip), vehicle: saline with Tween-80 88 % of control | dose: 100.0 mg/kg/injection, schedule: Q01DX005 (ip), vehicle: saline with Tween-80 87 % of control | dose: 200.0 mg/kg/injection, schedule: Q01DX005 (ip), vehicle: saline with Tween-80 98 % of control

CC1=CC(O)(c2ccccn2)P(=O)(c2ccccc2)C=C1C (stereo unspecified)
inactive: [1] 115 % of control | [2] 111 % of control | [3] 99 % of control

CN(C)c1ccc(C2OC3(CCCCC3)C[N+]23CCCC3)cc1 (stereo unspecified)
inactive: dose: 3.12 mg/kg/injection, schedule: Q01DX009 (ip), vehicle: saline with Tween-80 100 % of control | dose: 6.25 mg/kg/injection, schedule: Q01DX009 (ip), vehicle: saline with Tween-80 104 % of control | dose: 12.5 mg/kg/injection, schedule: Q01DX009 (ip), vehicle: saline with Tween-80 86 % of control

Cc1ccc2nc(N3C(=O)CSC3=S)sc2c1
inactive: dose: 50.0 mg/kg/injection, schedule: Q01DX009 (ip), vehicle: Klucel (hydroxypropylcellulose) (HPC) 100 % of control | dose: 100.0 mg/kg/injection, schedule: Q01DX009 (ip), vehicle: Klucel (hydroxypropylcellulose) (HPC) 96 % of control

Cc1ccccc1OC(=O)Nc1ccc(C(=O)O)c(O)c1
inactive: dose: 100.0 mg/kg/injection, schedule: Q01DX001 (ip), vehicle: saline with Tween-80 95 % of control | dose: 200.0 mg/kg/injection, schedule: Q01DX001 (ip), vehicle: saline with Tween-80 109 % of control

CCCC(=O)OC1C=C2N3C(=O)C4CC56C(=CC(OC(C)=O)C7OC75)N4C(=O)C3CC26C2OC12 (stereo unspecified)
inactive: dose: 0.13 mg/kg/injection, schedule: Q01DX005 (ip), vehicle: Klucel (hydroxypropylcellulose) (HPC) 100 % of control | dose: 0.25 mg/kg/injection, schedule: Q01DX005 (ip), vehicle: Klucel (hydroxypropylcellulose) (HPC) 100 % of control | dose: 0.5 mg/kg/injection, schedule: Q01DX005 (ip), vehicle: Klucel (hydroxypropylcellulose) (HPC) 100 % of control | dose: 1.0 mg/kg/injection, schedule: Q01DX005 (ip), vehicle: Klucel (hydroxypropylcellulose) (HPC) 107 % of control | dose: 2.0 mg/kg/injection, schedule: Q01DX005 (ip), vehicle: Klucel (hydroxypropylcellulose) (HPC) 99 % of control and 103 % of control | dose: 4.0 mg/kg/injection, schedule: Q01DX005 (ip), vehicle: Klucel (hydroxypropylcellulose) (HPC) 96 % of control

Nc1ncnc2c1c1c(=O)[nH]c(=O)[nH]c1n2C1OC(CO)C(O)C1O (stereo unspecified)
inactive: dose: 25.0 mg/kg/injection, schedule: Q01DX005 (ip), vehicle: distilled water + Tween-80 113 % of control | dose: 50.0 mg/kg/injection, schedule: Q01DX005 (ip), vehicle: distilled water + Tween-80 110 % of control | dose: 100.0 mg/kg/injection, schedule: Q01DX005 (ip), vehicle: distilled water + Tween-80 111 % of control | dose: 200.0 mg/kg/injection, schedule: Q01DX005 (ip), vehicle: distilled water + Tween-80 111 % of control | dose: 400.0 mg/kg/injection, schedule: Q01DX005 (ip), vehicle: distilled water + Tween-80 121 % of control

COc1ccc2ncc(COC(C)=O)c(COC(C)=O)c2c1
inactive: [4] 99 % of control | [5] 98 % of control | [6] 102 % of control

CC(=O)CC(C)c1ccc(C(C)CC(C)=O)o1 (stereo unspecified)
inactive: [7] 104 % of control | [8] 106 % of control | [9] 104 % of control

COc1cc2c(cc1OC)[N+]([O-])=C(c1ccccc1)C2=O
inactive: [4] 94 % of control | [5] 93 % of control

COC(=O)c1cccc2c(N)c(N)cc(C(=O)OC)c12
inactive: [7] 100 % of control | [8] 104 % of control | [9] 106 % of control

CC(=O)c1ccccc1N=Nc1ccc(N(CCCl)CCCl)cc1
inactive: dose: 50.0 mg/kg/injection, schedule: Q01DX009 (ip), vehicle: saline with Tween-80 108 % of control | [10] 106 % of control | [11] 112 % of control

COc1ccc(OC(=O)CCCl)cc1
inactive: [10] 113 % of control | [11] 108 % of control | dose: 400.0 mg/kg/injection, schedule: Q01DX009 (ip), vehicle: saline with Tween-80 104 % of control

COc1cccc2c1C(=O)c1c(O)c3c(c(O)c1C2=O)CC(O)(c1csc(N)n1)CC3O (stereo unspecified)
inactive: dose: 1.56 mg/kg/injection, schedule: Q01DX009 (ip), vehicle: other 100 % of control | dose: 3.13 mg/kg/injection, schedule: Q01DX009 (ip), vehicle: other 107 % of control | dose: 6.25 mg/kg/injection, schedule: Q01DX009 (ip), vehicle: other 101 % of control | dose: 12.5 mg/kg/injection, schedule: Q01DX009 (ip), vehicle: other 108 % of control | dose: 25.0 mg/kg/injection, schedule: Q01DX009 (ip), vehicle: other 107 % of control | dose: 50.0 mg/kg/injection, schedule: Q01DX009 (ip), vehicle: other 108 % of control

Nc1nccn2cnnc12
inactive: dose: 100.0 mg/kg/injection, schedule: Q01DX001 (ip), vehicle: Klucel (hydroxypropylcellulose) (HPC) 100 % of control | dose: 200.0 mg/kg/injection, schedule: Q01DX001 (ip), vehicle: Klucel (hydroxypropylcellulose) (HPC) 104 % of control | dose: 400.0 mg/kg/injection, schedule: Q01DX001 (ip), vehicle: Klucel (hydroxypropylcellulose) (HPC) 100 % of control

O=C(O)Cc1ccc(N2N=C(c3ccccc3)CC2=O)cc1
inactive: [7] 98 % of control | [8] 92 % of control

CC1(C)CN=C(C2=C(O)c3ccccc3C2=O)C1
inactive: dose: 100.0 mg/kg/injection, schedule: Q04DX003 (ip), vehicle: saline with Tween-80 91 % of control | dose: 200.0 mg/kg/injection, schedule: Q04DX003 (ip), vehicle: saline with Tween-80 93 % of control | dose: 400.0 mg/kg/injection, schedule: Q04DX003 (ip), vehicle: saline with Tween-80 90 % of control

Cn1cc(C#N)c(=O)[nH]c1=O
inactive: [4] 101 % of control | [5] 98 % of control | [6] 104 % of control
